Measured values as given in patent publication US20240208953A1, “"Cyclopenta[c]pyrrol Negative Allosteric Modulators of NR2B"” (Novartis AG, priority 2021, published 2024).

What was measured:
NR2B = NR2B (Rattus norvegicus (Rat), UniProt Q00960); experiment: NR2B rat cortical neuron calcium influx assay; format: cell-based; settings: rat cortical neurons, glutamate and glycine stimulated calcium influx
Source text: Example 1: NR2B Rat Cortical Neuron Calcium Influx Assay Protocol
Embryonic day 18 timed pregnant Sprague Dawley rats were euthanized according to Institutional Animal Care and Use Committee (IACUC) protocol. After cutting medially through the skin and exposing the uterus and embryos, fetuses were removed and placed in cold Hibernate medium. Each embryo's brain was extracted and cerebral cortices were isolated by removing the midbrain and meninges. The dissected cortices were then dissociated into the neurons using papain dissociation system (Worthington Biochemical Corporation) according the manufacturer's protocol.
Dissociated neurons were counted and plated into 384-well poly-D-lysine coated plates (Corning® BioCoat™) at a density of 20,000 cells/well in 30 μL of Neurobasal/B27 complete medium. Neurons were cultured at 37° C. for 2 days. On the assay day, medium was removed and cells were incubated with 20 μL/well of calcium dye (Calcium 6 Assay Kit, Molecular Devices) suspended in HBSS with 1.8 mM Ca^2+ (Ca-HBSS) according to the manufacturer's instruction.
Compounds of interest from 10 mM stock were serially diluted into 3× of desired concentrations in 1.8 mM Ca-HBSS, and 10 μL were added to the wells. Compound and the neurons were incubated at 37° C. for 2 hours in the dark.
On FDSS7000EX (Hamamatsu Photonics), a fluorescence measuring instrument, 10 μL of 4× ligand solution containing glutamate and glycine made in 1.8 mM Ca^2+-HBSS were added to each well. The fluorescent signals were collected before and after the addition of ligands for a total of 2 minutes. The data were converted to a ratio of the peak fluorescence to the fluorescence at the beginning of the measurement.
Each data point was measured in duplicates. Dose response curves were used to identify IC50 and maximal inhibition values. IC50 represents the concentration in μM of compound at which there is a half-maximal compound effect. Maximal inhibition of a compound is expressed as a percent of the highest inhibition of activity over a no compound control.

P-glycoprotein (P-gp) = P-glycoprotein (P-gp) (Homo sapiens (Human), UniProt P08183); experiment: MDCK-MDR1 permeability / efflux assay; format: in vitro ADME; settings: for efflux ratio at 120 min, 10 μM: dog, MDCK-MDR1, pH 7.4, efflux ratio, read-out: MDCK-MDR1 ER
Protocol: Example 4. Experimental Measurement of Efflux with MDCK-MDR1 Protocol
Cell Culture. MDCK-MDR1 cells were cultured at 37° C. under a 5% CO2 atmosphere, at 95% relative humidity in DMEM containing 10% FBS, penicillin-streptomycin (100 μg/mL), and 2 mM Ala-Gln. Cells were passaged every 3-4 days. For assay purposes, cells were seeded at a density of approximately 265,000 cells/cm^2 of a 96-well Transwell plate (Corning Life Sciences, Acton, MA) and cultured in the same media noted above for a period of 4 days.
Assay. The determination of the apparent permeability (Papp) was performed in both the A→B (apical to basal) and B→A (basal to apical) directions where each compound was assayed in triplicate. The zwitterion bestatin, a poorly permeably compound, was used as marker of monolayer integrity. To initiate the assay, media was aspirated, and the cells and basal chambers were washed three times with Hank's Balanced Salt Solution (HBSS) containing 10 mM HEPES (pH 7.4). Compound test solutions were prepared in triplicate in HBSS containing 10 mM HEPES (pH 7.4) and 0.02% bovine serum albumin (BSA) to a final concentration of 10 μM and centrifuged for 2 min at 4000×g, then applied to the donor compartment at time zero. Additionally, at time zero, a 37° C. solution without test articles (HBSS+10 mM HEPES (pH 7.4) plus 0.02% BSA) was added to the receiver chamber of the Transwell plate. A time zero sample of the donor solution was also sampled for further analysis. The assay was conducted for a period of 120 min at 37° C. without shaking. At the time of assay termination, samples were taken from each donor compartment, and each acceptor compartment of the Transwell plate. To each of the 0 and 120 min samples was added an internal standard solution containing glyburide in water:acetonitrile, 50:50 (v:v). Concentration curves were prepared using a Labcyte Echo in the same matrix noted above. Samples and concentration curve samples were centrifuged for 10 min at 4000×g and subsequently analyzed by mass spectroscopy.
Mass Spectroscopy. Assay samples were loaded onto a RapidFire C4 cartridge by means of a RapidFire autosampler (Agilent, Santa Clara, CA). […] Mass spectroscopy was performed using an AB Sciex AP15500 (Sciex, Frammingham, MA) equipped with a turbo ion spray source. The analyte concentration was calculated from the chromatographic peak area ratio of analyte to internal standard (glibenclamide, m/z 494→169), using Multiquant software V3.0 (Sciex, Framingham, MA).
Calculations. Papp values were determined as
Percent recovery values were determined as:
where VA is the volume of the acceptor (mL), S is the surface area of the membrane, D0 is the donor solution concentration at t=0, D120 is the donor solution concentration at t=120, A120 is the acceptor solution concentration at t=120, and t=time (seconds).
The suitability of a compound for oral dosing and/or for use as a CNS therapeutic is usually conducted by MDCK-MDR1 permeability assay to investigate its drug efflux potential mediated by P-glycoprotein (P-gp). MDCK-MDR1 permeability has been used as a predictor of blood brain barrier permeability in terms of efflux ratio (ER).

Sequence of P-glycoprotein (P-gp) (P08183 whole entry): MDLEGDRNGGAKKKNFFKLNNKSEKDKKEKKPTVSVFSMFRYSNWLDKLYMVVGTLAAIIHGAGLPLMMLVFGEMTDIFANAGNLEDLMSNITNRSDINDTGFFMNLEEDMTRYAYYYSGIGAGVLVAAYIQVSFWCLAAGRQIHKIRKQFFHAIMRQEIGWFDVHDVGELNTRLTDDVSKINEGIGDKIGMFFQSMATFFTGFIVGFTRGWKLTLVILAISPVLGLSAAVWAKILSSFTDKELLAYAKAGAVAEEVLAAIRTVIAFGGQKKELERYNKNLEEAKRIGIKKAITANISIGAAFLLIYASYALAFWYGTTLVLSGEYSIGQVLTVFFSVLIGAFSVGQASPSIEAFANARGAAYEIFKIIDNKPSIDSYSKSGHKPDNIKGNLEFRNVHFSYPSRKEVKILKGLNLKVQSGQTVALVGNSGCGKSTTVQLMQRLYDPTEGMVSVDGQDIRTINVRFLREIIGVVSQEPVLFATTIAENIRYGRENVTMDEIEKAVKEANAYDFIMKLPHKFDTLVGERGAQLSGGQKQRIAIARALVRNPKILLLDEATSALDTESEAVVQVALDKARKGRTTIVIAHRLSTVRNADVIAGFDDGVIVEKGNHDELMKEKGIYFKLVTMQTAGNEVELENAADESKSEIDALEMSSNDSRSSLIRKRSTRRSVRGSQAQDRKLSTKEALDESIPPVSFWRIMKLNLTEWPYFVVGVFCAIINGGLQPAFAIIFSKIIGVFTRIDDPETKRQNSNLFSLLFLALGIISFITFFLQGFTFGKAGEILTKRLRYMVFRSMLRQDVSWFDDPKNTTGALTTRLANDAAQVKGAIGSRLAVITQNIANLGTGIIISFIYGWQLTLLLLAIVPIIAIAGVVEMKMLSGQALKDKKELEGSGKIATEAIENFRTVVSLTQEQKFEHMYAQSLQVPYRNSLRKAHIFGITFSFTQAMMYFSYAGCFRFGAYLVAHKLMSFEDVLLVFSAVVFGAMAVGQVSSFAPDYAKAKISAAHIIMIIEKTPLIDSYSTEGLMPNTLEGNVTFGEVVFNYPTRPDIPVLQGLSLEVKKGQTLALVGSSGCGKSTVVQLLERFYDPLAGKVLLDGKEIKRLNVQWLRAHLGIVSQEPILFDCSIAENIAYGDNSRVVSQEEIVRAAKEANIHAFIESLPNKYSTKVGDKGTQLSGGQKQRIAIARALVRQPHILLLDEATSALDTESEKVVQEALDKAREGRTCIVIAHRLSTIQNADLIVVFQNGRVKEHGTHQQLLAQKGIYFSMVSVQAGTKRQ
Sequence of NR2B (Q00960 27-1482, other chains not shown): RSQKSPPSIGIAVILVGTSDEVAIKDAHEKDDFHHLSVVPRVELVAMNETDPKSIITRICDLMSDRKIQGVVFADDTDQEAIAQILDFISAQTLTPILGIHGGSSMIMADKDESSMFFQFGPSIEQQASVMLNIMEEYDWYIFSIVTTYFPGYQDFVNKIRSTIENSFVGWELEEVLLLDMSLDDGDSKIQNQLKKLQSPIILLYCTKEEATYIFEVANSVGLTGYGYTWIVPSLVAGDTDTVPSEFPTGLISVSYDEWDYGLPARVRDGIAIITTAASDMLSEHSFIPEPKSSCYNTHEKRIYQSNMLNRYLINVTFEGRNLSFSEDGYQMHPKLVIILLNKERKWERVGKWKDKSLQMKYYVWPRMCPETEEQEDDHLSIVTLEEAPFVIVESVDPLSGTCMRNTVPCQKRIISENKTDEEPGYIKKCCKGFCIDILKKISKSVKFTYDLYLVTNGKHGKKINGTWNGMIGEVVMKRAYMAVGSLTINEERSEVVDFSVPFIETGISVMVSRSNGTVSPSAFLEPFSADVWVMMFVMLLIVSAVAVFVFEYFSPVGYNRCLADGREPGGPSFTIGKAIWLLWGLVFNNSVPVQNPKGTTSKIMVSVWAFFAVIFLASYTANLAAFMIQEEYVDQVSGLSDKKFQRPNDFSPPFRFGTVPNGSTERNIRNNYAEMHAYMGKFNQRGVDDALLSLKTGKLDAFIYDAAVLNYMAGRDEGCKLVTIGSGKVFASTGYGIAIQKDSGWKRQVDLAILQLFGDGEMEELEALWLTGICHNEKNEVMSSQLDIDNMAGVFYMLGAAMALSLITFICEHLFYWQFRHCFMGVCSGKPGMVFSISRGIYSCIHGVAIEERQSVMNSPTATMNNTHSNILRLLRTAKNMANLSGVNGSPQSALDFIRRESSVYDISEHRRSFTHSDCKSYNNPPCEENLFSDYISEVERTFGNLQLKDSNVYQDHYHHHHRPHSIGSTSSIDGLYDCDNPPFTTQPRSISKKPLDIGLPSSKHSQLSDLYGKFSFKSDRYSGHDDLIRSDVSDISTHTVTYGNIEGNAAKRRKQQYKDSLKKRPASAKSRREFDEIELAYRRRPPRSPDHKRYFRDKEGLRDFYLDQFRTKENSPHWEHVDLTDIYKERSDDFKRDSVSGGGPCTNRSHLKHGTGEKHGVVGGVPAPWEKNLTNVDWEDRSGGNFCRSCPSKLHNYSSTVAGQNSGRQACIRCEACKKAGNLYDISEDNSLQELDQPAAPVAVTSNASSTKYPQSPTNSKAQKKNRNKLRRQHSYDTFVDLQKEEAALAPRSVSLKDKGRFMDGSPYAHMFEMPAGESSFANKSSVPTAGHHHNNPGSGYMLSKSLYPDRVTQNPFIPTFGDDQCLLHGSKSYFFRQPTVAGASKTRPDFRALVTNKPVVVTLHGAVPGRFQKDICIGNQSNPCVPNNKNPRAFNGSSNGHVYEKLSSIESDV

Q: O=C1Nc2c(cc([C@@H](O)CN3C[C@H]4C[C@H](Oc5ccccc5)C[C@@]4(O)C3)c(F)c2F)CO1 (single isomer, unassigned) [Example 38A] was tested. Which IC50 (NR2B) did it give?
A: 5.1 nM

Q: And the efflux ratio at 120 min, 10 μM (P-glycoprotein (P-gp))?
A: 1.58

Q: O=C1CCc2cc([C@H](O)CN3C[C@@H]4C[C@@H](Oc5ccccc5F)C[C@]4(O)C3)cc(F)c2N1 (single isomer, unassigned) [Example 6D] was tested. Which IC50 (NR2B) did it give?
A: 2.4 nM

Q: And the efflux ratio at 120 min, 10 μM (P-glycoprotein (P-gp))?
A: 1.29

Q: How did the IC50 (NR2B) turn out when O=c1[nH]c2ccc([C@H](O)CN3C[C@H]4C[C@H](Oc5ccccc5)C[C@@]4(O)C3)cc2s1 (single isomer, unassigned) [Example 17B] was run?
A: 0.049 nM

Q: And the efflux ratio at 120 min, 10 μM (P-glycoprotein (P-gp))?
A: 2.06

Q: With O=C1Cc2cc([C@@H](O)CN3C[C@@H]4C[C@@H](Oc5ccccc5)[C@@H](O)[C@]4(O)C3)ccc2N1 [Example 3A, 5-((R)-2-((3aR,4R,5R,6aS)-3a,4-dihydroxy-5-phenoxyhexahydrocyclopenta[c]pyrrol-2(1H)-yl)-1-hydroxyethyl)indolin-2-one] as the compound, how does the IC50 (NR2B) read?
A: 5490 nM

Q: What about the efflux ratio at 120 min, 10 μM (P-glycoprotein (P-gp)) of the same compound?
A: 7.49

Q: With O=c1[nH]c2c(F)cc([C@H](O)CN3C[C@H]4C[C@H](Oc5ccccc5)C[C@@]4(O)C3)cc2cc1F (single isomer, unassigned) [Example 20B] as the compound, how does the IC50 (NR2B) read?
A: 0.33 nM

Q: What about the efflux ratio at 120 min, 10 μM (P-glycoprotein (P-gp)) of the same compound?
A: 3.32

Q: Which results are given for O=C1CCc2cc([C@H](O)CN3C[C@@H]4C[C@@H](Oc5cccc(F)c5)C[C@]4(O)C3)ccc2N1 (single isomer, unassigned) [Example 23D]?
A: IC50 (NR2B): 1.3 nM; efflux ratio at 120 min, 10 μM (P-glycoprotein (P-gp)): 3.28

Q: How did the IC50 (NR2B) turn out when O=C1CCCc2cc([C@@H](O)CN3C[C@H]4C[C@H](Oc5ccccc5)C[C@@]4(O)C3)cc(F)c2N1 (single isomer, unassigned) [Example 30A] was run?
A: 280 nM

Q: And the efflux ratio at 120 min, 10 μM (P-glycoprotein (P-gp))?
A: 1.18

Q: With O=C1Nc2ccc([C@@H](O)CN3C[C@H]4C[C@H](Oc5ccccc5)C[C@@]4(O)C3)c(F)c2CO1 (single isomer, unassigned) [Example 34A] as the compound, how does the IC50 (NR2B) read?
A: 2.7 nM

Q: And the efflux ratio at 120 min, 10 μM (P-glycoprotein (P-gp))?
A: 3.81

Q: With O=C1CCc2cc([C@@H](O)CN3C[C@@H]4C[C@@H](Oc5ccc(F)cc5)C[C@]4(O)C3)ccc2N1 (single isomer, unassigned) [Example 22C] as the compound, how does the IC50 (NR2B) read?
A: 1.4 nM

Q: And the efflux ratio at 120 min, 10 μM (P-glycoprotein (P-gp))?
A: 1.43

Q: Which results are given for “9-fluoro-7-((R)-1-hydroxy-2-((3aS,5S,6aR)-3a-hydroxy-5-phenoxyhexahydrocyclopenta[c]pyrrol-2(1H)-yl)ethyl)-1,5-dihydrobenzo[e][1,4]oxazepin-2(3H)-one [Example 32A]”?
A: IC50 (NR2B): 960 nM; MDCK-MDR1 ER (P-glycoprotein (P-gp); efflux ratio, 10 μM, 120 min): 0.83

Q: With O=C1CCc2cc([C@@H](O)CN3C[C@H]4C[C@H](Oc5ccccc5F)C[C@@]4(O)C3)cc(F)c2N1 (single isomer, unassigned) [Example 6A] as the compound, how does the IC50 (NR2B) read?
A: 520 nM

Q: What about the efflux ratio at 120 min, 10 μM (P-glycoprotein (P-gp)) of the same compound?
A: 1.01

Q: Which IC50 (NR2B) does the source give for O=C1CCc2cc([C@H](O)CN3C[C@@H]4C[C@@H](Oc5ccccc5)[C@@H](O)[C@]4(O)C3)ccc2N1 [Example 4D, 6-((S)-2-((3aR,4R,5R,6aS)-3a,4-dihydroxy-5-phenoxyhexahydrocyclopenta[c]pyrrol-2(1H)-yl)-1-hydroxyethyl)-3,4-dihydroquinolin-2(1H)-one] here?
A: 250 nM

Q: What about the efflux ratio at 120 min, 10 μM (P-glycoprotein (P-gp)) of the same compound?
A: 6.87

Q: Which IC50 (NR2B) does the source give for O=C1CCc2cc([C@@H](O)CN3C[C@@H]4C[C@@H](Oc5cccc(F)c5)C[C@]4(O)C3)ccc2N1 (single isomer, unassigned) [Example 23C] here?
A: 1.4 nM

Q: What about the efflux ratio at 120 min, 10 μM (P-glycoprotein (P-gp)) of the same compound?
A: 3.75

Q: What does the source list for O=C1CCc2cc([C@@H](O)CN3C[C@H]4C[C@H](Oc5ccccc5)[C@H](O)[C@@]4(O)C3)ccc2N1 [Example 4A, 6-((R)-2-((3aS,4S,5S,6aR)-3a,4-dihydroxy-5-phenoxyhexahydrocyclopenta[c]pyrrol-2(1H)-yl)-1-hydroxyethyl)-3,4-dihydroquinolin-2(1H)-one]?
A: IC50 (NR2B): 13 nM; efflux ratio at 120 min, 10 μM (P-glycoprotein (P-gp)): 6.99

Q: O=C1CCc2cc([C@@H](O)CN3C[C@H]4C[C@H](Oc5ccccc5F)[C@H](O)[C@@]4(O)C3)cc(F)c2N1 (single isomer, unassigned) [Example 29A] was tested. Which IC50 (NR2B) did it give?
A: 130 nM

Q: What about the efflux ratio at 120 min, 10 μM (P-glycoprotein (P-gp)) of the same compound?
A: 3.23

Q: O=C1CCc2cc([C@H](O)CN3C[C@@H]4C[C@@H](Oc5c(F)cccc5F)C[C@]4(O)C3)ccc2N1 (single isomer, unassigned) [Example 27D] was tested. Which IC50 (NR2B) did it give?
A: 1.4 nM

Q: What about the efflux ratio at 120 min, 10 μM (P-glycoprotein (P-gp)) of the same compound?
A: 2.05

Q: With O=C1Nc2ccc([C@@H](O)CN3C[C@H]4C[C@H](Oc5ccccc5F)C[C@@]4(O)C3)cc2CS1 (single isomer, unassigned) [Example 15A] as the compound, how does the IC50 (NR2B) read?
A: 0.0015 nM

Q: And the efflux ratio at 120 min, 10 μM (P-glycoprotein (P-gp))?
A: 1.6

Q: How did the IC50 (NR2B) turn out when O=C1COc2cc([C@@H](O)CN3C[C@H]4C[C@H](Oc5ccccc5)C[C@@]4(O)C3)cc(F)c2N1 (single isomer, unassigned) [Example 13A] was run?
A: 86 nM

Q: And the efflux ratio at 120 min, 10 μM (P-glycoprotein (P-gp))?
A: 1.22

Q: What does the source list for O=C1CCc2c(ccc([C@@H](O)CN3C[C@H]4C[C@H](Oc5ccccc5)C[C@@]4(O)C3)c2F)N1 (single isomer, unassigned) [Example 9A]?
A: IC50 (NR2B): 2.7 nM; efflux ratio at 120 min, 10 μM (P-glycoprotein (P-gp)): 1.06

Q: With O=C1Nc2ccc([C@@H](O)CN3C[C@H]4C[C@H](Oc5ccccc5F)C[C@@]4(O)C3)cc2CCO1 (single isomer, unassigned) [Example 12A] as the compound, how does the IC50 (NR2B) read?
A: 0.3 nM

Q: And the efflux ratio at 120 min, 10 μM (P-glycoprotein (P-gp))?
A: 2.81

Q: O=C1Nc2ccc([C@H](O)CN3C[C@H]4C[C@H](Oc5ccccc5F)C[C@@]4(O)C3)cc2CO1 (single isomer, unassigned) [Example 41B] was tested. Which IC50 (NR2B) did it give?
A: 0.23 nM

Q: What about the efflux ratio at 120 min, 10 μM (P-glycoprotein (P-gp)) of the same compound?
A: 2.44

Q: Which IC50 (NR2B) does the source give for O=C1CCc2cc([C@H](O)CN3C[C@H]4C[C@H](Oc5ccccc5)C[C@@]4(O)C3)c(F)cc2N1 (single isomer, unassigned) [Example 10B] here?
A: 0.56 nM

Q: What about the efflux ratio at 120 min, 10 μM (P-glycoprotein (P-gp)) of the same compound?
A: 2.49

Q: How did the IC50 (NR2B) turn out when O=C1Nc2c(F)cc([C@@H](O)CN3C[C@H]4C[C@H](Oc5ccccc5)C[C@@]4(O)C3)c(F)c2CO1 (single isomer, unassigned) [Example 37A] was run?
A: 33 nM

Q: And the efflux ratio at 120 min, 10 μM (P-glycoprotein (P-gp))?
A: 1.15

Q: Which results are given for O=C1CCCc2cc([C@@H](O)CN3C[C@H]4C[C@H](Oc5ccccc5F)C[C@@]4(O)C3)ccc2N1 (single isomer, unassigned) [Example 43A]?
A: IC50 (NR2B): 0.034 nM; efflux ratio at 120 min, 10 μM (P-glycoprotein (P-gp)): 2.16

Q: For CC1(C)Cc2cc([C@@H](O)CN3C[C@H]4C[C@H](Oc5ccccc5)C[C@@]4(O)C3)ccc2NC1=O (single isomer, unassigned) [Example 11A], which IC50 (NR2B) is on record?
A: 1.9 nM

Q: And the efflux ratio at 120 min, 10 μM (P-glycoprotein (P-gp))?
A: 1.74

Q: With O=C1Nc2c(F)cc([C@H](O)CN3C[C@H]4C[C@H](Oc5ccccc5F)C[C@@]4(O)C3)cc2CO1 (single isomer, unassigned) [Example 35B] as the compound, how does the IC50 (NR2B) read?
A: 1.3 nM

Q: What about the efflux ratio at 120 min, 10 μM (P-glycoprotein (P-gp)) of the same compound?
A: 2.04
